Here are results for 2 compounds from publication PMC12519263, “Antifibrotic Efficacy of a Nintedanib–Peptide Conjugate and Diagnostic Potential of a Fluorescent Companion Probe Targeting αVβ6 Integrin in Idiopathic Pulmonary Fibrosis” (ACS Pharmacology & Translational Science, 2025).

One data set deals with human recombinant VEGFR. Further details: method as in previously reported, see ref (number not given). Conditions: ref previously reported, see ref (number not given); read-out: IC50, TKI activity against human recombinant VEGFR; cited from earlier work.
Data set [1] deals with TGF-β1 in hIPF fibroblasts. As to the kind of experiment: Western blot of intracellular TGF-β1 (44 kDa) expression. Type of data set: cell-based, human. Conditions: 24 h, 5 μM, Western blot densitometry normalized to vinculin, vs untreated, three independent experiments. The text has this: (§1) The effect of treatment with compound 1 on patient-derived hIPF fibroblasts was next investigated by evaluating the inhibition of both TGF-β1 production and ERK1/2 phosphorylation. It is important to note that TGF-β1 expression is usually evaluated in cultured cells in secreted form in their culture medium (soluble and active form of TGF-β1 (13 kDa)). We reasoned that the evaluation of the intracellular form of full-length TGF-β1 (44 kDa) in hIPF fibroblasts might directly reflect the potency of the conjugated compound to inhibit TGF-β1 production. Evaluation of these fibrosis-related hallmarks would have been indicative of the downstream effect of our conjugate on IPF-related human cell signaling promoted by either the integrin ligand, the nintedanib component, or both. […]
(§2) The protein content in each sample was quantified using the Bradford colorimetric assay, and 56 μg of total proteins was prepared for SDS-PAGE analysis using Bolt LDS Sample Buffer 4× (Novex, Life Technologies) with 10% Bolt Sample Reducing Agent 10× (Novex, Life Technologies). […] Each band detected was quantified by densitometric analysis, using ImageJ software, and normalized against vinculin expression as the housekeeper protein.

The test system of data set [2] is p-ERK1/2 in hIPF fibroblasts. As to the kind of experiment: Western blot of ERK1/2 phosphorylation. Particulars: 24 h, 5 μM, Western blot densitometry normalized to vinculin, vs untreated, three independent experiments. The data set is classed as cell-based, human.
Description: as §1, §2

In another data set the test system is hIPF fibroblasts. Put plainly: Cell internalization by flow cytometry (intrinsic nintedanib fluorescence). Conditions: 24 h, 5 μM, flow cytometry λex 405 nm, BV421 channel, one representative result. The data set is classed as cell-based, human. A general note: In flow cytometry, cells or beads pass a laser one at a time.
Data set [3] has as its system BLM-induced lung fibrosis. Put plainly: Antifibrotic therapy in BLM-induced lung fibrosis mouse model (Study #2; μCT, histology). Particulars: day 14 to 21, BLM mice; for severe fibrotic lesions (Ashcroft score, histology): left lobe, Picrosirius red, day 21, vs BLM. Type of data set: in vivo, C57Bl/6 mice.
Description: After triple BLM instillation, all mice underwent μCT imaging on days 14 and 21, indicating the beginning and the end of the therapeutic window. , On day 14, the BLM-treated mice were divided into 5 groups, namely, Vehicle, NINT (23), NINT (94), PepNIN 1 (23), and Ligand 11 (23). […] The two remaining groups received the NINT (23) (nintedanib at 23 μmol/kg) and ligand 11 (23) (cyclopeptide ligand 11 at 23 μmol/kg) alone to investigate the therapeutic effect of each single component at this reduced dosage.
Bleomycin hydrochloride (Baxter) dissolved in 50 μL of saline was administered via a triple oropharyngeal aspiration (OA) under 2.5% isoflurane anesthesia to induce pulmonary fibrosis, as previously described. , The negative control group received a triple OA with saline (Saline).
In Study #2, BLM-treated mice (29 of 35 mice) on day 14 were divided into 5 different groups (reported in Table S2, Supporting Information) and were daily treated with nintedanib (94 or 23 μmol/kg), PepNIN 1 (23 μmol/kg), integrin ligand 11 (23 μmol/kg), or vehicle (1% Tween 80 in ultrapure water) by oral gavage from day 14 to day 21. All mice were longitudinally monitored by μCT imaging on days 14 and 21, and subsequently they were sacrificed for the histological assessment of lung fibrosis.
Mice thoraxes were imaged using a Quantum GX Micro-CT scanner (Revvity, Inc. Waltham, MA) after anesthetic induction and maintenance with 2% isoflurane. Images were taken in free-breathing mice using the following parameters: an X-ray tube current of 88 A, an X-ray tube voltage of 90 kV, and a total angle of 360° over a scan period of 4 min. The detector was 736 × 588 pixels with a size of 0.2 mm. The reconstruction method automatically trimmed the pixels to produce a projection size of 512 × 512 pixels. Binning was not employed. Each animal was placed supine on the scanner bed, with its chest adjusted to fit inside the field of view. To detect the breathing pattern, pictures were captured in “high-speed” mode, allowing the recording of the gating signal through a region of interest (ROI) positioned over the animals’ diaphragm. Projections were collected in “list mode” (labeled as “00000”, “00001”, ···, “14′687”) during a single continuous gantry rotation. […] The acquisition duration was 4 min, and around 900 projections (both P01 and P02) were automatically selected and used for the reconstruction of the two data sets, with the option to change the thresholds to select the most suited projections. However, our highly controlled anesthetic protocol , enabled us to maintain constant breathing rates (100–120 bpm). Two stacks of 512 cross-sectional images were automatically reconstructed into two 3D data sets corresponding to the inspiratory and expiratory breathing phases (end-inspiration, P01; end-expiration, P02), with a 50 μm isotropic reconstructed voxel size, using a filtered back-projection algorithm with a Ram-Lak filter.
Data set [4] can be described thus: Body weight monitoring and tolerability in Study #2. Particulars: triple oropharyngeal BLM, within the first 7 days, compared to saline group. The data set is classed as in vivo, C57Bl/6 mice. The text has this: Figure A illustrates the setup of the pharmacological experiment identified as Study #2 (see also Table S2 in the Supporting Information). After triple BLM instillation, all mice underwent μCT imaging on days 14 and 21, indicating the beginning and the end of the therapeutic window. , On day 14, the BLM-treated mice were divided into 5 groups, namely, Vehicle, NINT (23), NINT (94), PepNIN 1 (23), and Ligand 11 (23). The reference standard in our drug discovery studies is NINT (94), representing the ideal dosage (94 μmol/kg) of the FDA-approved drug that produces antifibrotic effects in the preclinical BLM model. To better emphasize the synergistic therapeutic effect of nintedanib when it is covalently conjugated with our integrin ligand, the stoichiometric dose of nintedanib within the PepNIN 1 group was reduced by four times (to 23 μmol/kg). […]
The experiments were carried out on male C57Bl/6 mice aged 7–8 weeks, purchased from Envigo (San Pietro al Natisone, Udine, Italy). […] All required measures were taken to mitigate the animals’ distress or discomfort, and a designated veterinarian or trained technicians assessed pain levels daily using a Visual Analogue Scale (VAS) ranging from 0 to 10. […]

[5] abbreviates: 94 μmol/kg oral gavage daily, vs BLM group.

pIC50: −log10 of the molar value.

Regarding `COC(=O)c1ccc2c(c1)NC(=O)/C2=C(\Nc1ccc(N(C)C(=O)CN2CCN(C)CC2)cc1)c1ccccc1` [nintedanib], the pIC50 – broadly, the negative decadic logarithm of the IC50, by convention in mol/L – with human recombinant VEGFR is 8.15. Also, the “expression of intracellular form of TGF-β1 (44 kDa)” value in data set [1] was “reduced”. For the same compound, the ERK1/2 phosphorylation entry in data set [2] was “reduced”. The “percentage of positive cells (internalization)” value in the data set on hIPF fibroblasts is reported as “about 94%”; with hIPF fibroblasts (listed as NINT) it was 93.8%. The “severe fibrotic lesions (Ashcroft score, histology)” value in data set [3] (23 μmol/kg oral gavage daily) is “had no effects”; in data set [3] (94 μmol/kg oral gavage daily), “clearly reduced severe fibrotic lesions”. Besides, the “lung aeration by longitudinal μCT (%GasExpiration, poorly aerated tissue)” value is on record as “tendency toward disease progression” in data set [3] (23 μmol/kg oral gavage daily, vs BLM group) and “significantly improved lung aeration” in data set [3] (setting [5]). Further, the “CT biomarkers adjusted to own basal value on day 14” value in data set [3] (setting [5]) is listed as “statistically significant improvement”.

Take Bleomycin hydrochloride [BLM]: the body weight reduction in data set [4] is 10–15%.
